In patent US20140121164A1, “PREVENTION OF KIDNEY INJURY OR DISEASE” (University of Florida Research Foundation, priority 2012, published 2014):
“Also recorded” adds a separate entry of the source.

Experiments:
[1] = test system: patients undergoing cardiac surgery; assay: Prevention of AKI by different dosage regimes of AP214 in patients undergoing cardiac surgery (CS005 protocol); assay type: in vivo, human
Protocol: Each of 12 patients undergoing cardiac surgery (the AP214 group) was dosed with 600 μg/kg AP214: 200 μg/kg at skin incision, 200 μg/kg at cross clamp release, and 200 μg/kg 6-hour after cross clamp release. Each dosage was provided over a period of 10 minutes. The placebo group included 13 patients undergoing cardiac surgery without AP214 infusion.
Objectives • trial objective was to assess the effect of AP214 on • 1) changes in serum creatinine, cystatin-C and carbamade, • 2) on eGFR and • 3) on the development of post-surgical acute kidney injury (AKI) • AKI also assessed (post-hoc analysis) by AKIN and RIFLE
Three different definitions of AKI were tested: • 1) 3 patients in the AP214 group developed AKI, in contrast to 7 patients in the placebo group who developed AKI. AKI is defined as in the CS005 protocol: • An absolute increase in serum creatinine of more than or equal to 26.4 μmol/l (0.3 mg/dl) or • A percentage increase in serum creatinine of more than or equal to 50% (1.5-fold from baseline) from Day 0-14 and/or • Urine output less than 0.5 mL/kg per hour for more than 6 hours. • 2) AKI according to the AKIN score as presented in FIG. 3a, and • 3) AKI according to the RIFLE score as presented in FIG. 3b.

[2] = test system: patients undergoing cardiac surgery on cardiopulmonary bypass (CPB); assay: CS007 trial: short and long term efficacy signals and safety of AP214 in patients undergoing cardiac surgery on cardiopulmonary bypass; assay type: in vivo, human; conditions: for average serum creatinine values over time: through 168 hours post surgery; for outcomes as measured by the composite endpoint (all cause death, RRT, kidney function): 90 day post-operative period, vs placebo; for population distribution of extreme serum creatinine values: highest quartile; for kidney function as measured by estimated GFR: seven day post-operative period
Source text: The CS007 trial was designed to study both short and long term efficacy signals (FIG. 5).
Primary Aims • Safety: Safety and tolerability vs. placebo • Efficacy: Max post-operative change in absolute values of SCr compared to baseline within the first 7 days after surgery or until discharge from hospital, whichever comes first vs. placebo.
Secondary Aims • Composite: • Assess the proportion of patients reaching the composite endpoint of death, need for RRT or a 25% reduction in renal function over a 90 day post-operative period vs. placebo. • AKIN: Assess post-operative incidence of AKI within 48 hours post-surgery • RIFLE: Assess post-operative incidence of AKI within first 7 days post-surgery. • SCr: Changes between surgery and postoperative day 7. • GFR: Changes at day 90 compared to baseline. • eGFR: Changes between surgery and postoperative day 7
Each dosage was provided over a period of 10 minutes. As used throughout this disclosure and unless specified otherwise, “μg/kg” refers to μg AP214 per kg bodyweight of the patient being treated.
Moreover, in the same double-blind study described in this Example, patients undergoing cardiac surgery on cardiopulmonary bypass (CPB) were randomized to placebo (PBO; n=26), AP214 given at either 600 μg/kg (n=25), or 800 μg/kg (n=26), divided into 3 bolus infusions at the predetermined intervals as described above. AKI was determined according to AKIN and RIFLE scores.

[3] = test system: subjects; assay: Evaluation of rate of infusion of AP214 (CS002); assay type: in vivo, human
Protocol: To establish a suitable rate of infusion of AP214 a set of patient trials were performed.
AP214 isotonic solution single ascending doses (25, 50 and 100 μg/kg) for intravenous infusion administered over 10 minutes, or placebo (saline infusion).
AP214 isotonic solution single doses (100 μg/kg over 1 minute; 100 μg/kg over 30 seconds; 200 μg/kg over 30 seconds) for intravenous infusion.

[4] = test system: pigs after induction of complete warm ischemia in the kidney; conditions: 200 μg/kg, 10 ml i.v. bolus during 1 minute, seven doses; cited from earlier work
[5] = 600 μg/kg bodyweight (3×200 μg/kg), i.v. over 10 min each, vs placebo
[6] = 600 μg/kg bodyweight, vs placebo

**Q.** What does the source list for `CSCC[C@H](NC(=O)[C@H](CO)NC(=O)[C@H](Cc1ccc(O)cc1)NC(=O)[C@H](CO)NC(=O)[C@H](CCCCN)NC(=O)[C@H](CCCCN)NC(=O)[C@H](CCCCN)NC(=O)[C@H](CCCCN)NC(=O)[C@H](CCCCN)NC(=O)[C@H](CCCCN)NC(C)=O)C(=O)N[C@@H](CCC(=O)O)C(=O)N[C@@H](Cc1c[nH]cn1)C(=O)N[C@@H](Cc1ccccc1)C(=O)N[C@@H](CCCNC(=N)N)C(=O)N[C@@H](Cc1c[nH]c2ccccc12)C(=O)NCC(=O)N[C@@H](CCCCN)C(=O)N1CCC[C@H]1C(=O)N[C@H](C(N)=O)C(C)C` [AP214, Acetyl-Lysyl-L-lysyl-L-lysyl-L-lysyl-L-lysyl-L-lysyl-L-seryl-L-tyrosyl-L-seryl-L-methionyl-Lglutamyl-L-histidyl-L-phenylalanyl-L-arginyl-L-tryptophanyl-glycyl-L-lysyl-L-prolyl-L-valine amide]?
**A.** prevention of AKI as compared to the placebo ([1]; 150 μg/kg bodyweight (3×50 μg/kg), same dosing scheme): showed no prevention of AKI; patients who developed AKI (AKI as defined in the CS005 protocol) ([1]; 600 μg/kg (3×200 μg/kg), AP214 group of 12 patients, Day 0-14): 3 patients; development of AKI according to the RIFLE score and AKIN scores ([1]; 600 μg/kg bodyweight (3×200 μg/kg)): demonstrated prevention in the development of AKI; decrease in eGFR [1, 5]: prevented a decrease in eGFR; increase in serum creatinine [1, 5]: prevented; increase in carbamide [1, 6]: prevented; increase in cystatin C [1, 6]: prevented an increase in cystatin C; average serum creatinine values over time ([2]; 600 μg/kg (3×200 μg/kg)): decreased average serum creatinine; also recorded: decreasing average serum creatinine values over time; outcomes as measured by the composite endpoint (all cause death, RRT, kidney function) ([2]; 600 μg/kg): reduction in outcomes with the 600 μg/kg dosage showing statistical significance; also recorded: reduction in negative outcomes; population distribution of extreme serum creatinine values ([2]; 600 μg/kg): reduction in serum creatinine values at the highest quartile; kidney function as measured by estimated GFR ([2]; 600 μg/kg): increased kidney function; degrees of acute kidney injury compared to placebo ([2]; 800 μg/kg): lesser degrees of acute kidney injury; patients scored as AKI by AKIN and RIFLE criteria ([2]; 800 μg/kg): decrease in patients scored as AKI; average serum creatinine values over time ([2]; 800 μg/kg (1×200, 1×400, 1×200 μg/kg)): decreased average serum creatinine; also recorded: decreasing average serum creatinine values over time; GFR change (reduction) at Day 90 compared to baseline ([2]; 800 μg/kg vs. placebo, Danish sites only): significantly lower GFR change (reduction); outcomes as measured by the composite endpoint (all cause death, RRT, kidney function) ([2]; 800 μg/kg): reduction in negative outcomes; incidence of AKI compared with PBO by surgery type ([2]; 800 μg/kg, combined CABG and valve surgery, multiple valve surgery, chronic kidney disease and CABG (or valve surgery)): numerically lower incidence of AKI; population distribution of extreme serum creatinine values ([2]; 800 μg/kg): reduction in serum creatinine values at the highest quartile; kidney function as measured by estimated GFR ([2]; 800 μg/kg): increased kidney function; safety and tolerability ([2]; 600 and 800 μg/kg, each dosage over 10 minutes): safe and well tolerated; adverse events relative to 100 μg/kg over 30 sec and 1 minute ([3]; 200 μg/kg over 30 seconds): more adverse events; subjects reporting erythema ([3]; Group 2 (n=6), short infusion times): 6 subjects; adverse events ([3]; Group 2 (n=6), short infusion times: 100 μg/kg over 1 minute, 100 μg/kg over 30 seconds, 200 μg/kg over 30 seconds, i.v.): large number of adverse events; episodes of vomiting in one subject ([3]; Group 2, short infusion times): 8 episodes; tolerability ([3]; fast infusion rates): not well tolerated; adverse effects ([3]; slower infusion rate, 100 μg/kg over 10 minutes): did not show these adverse effects; tolerability ([3]; slower infusion rates (e.g., 10 minutes)): better tolerated; renoprotective effect [4]: provides a renoprotective effect
